Measurements taken from patent US20120058989A1, “ANTIBACTERIAL FLUOROQUINOLONE ANALOGS” (Achaogen, Inc., priority 2008, published 2012).
Converted amounts (≈) assume the structure as drawn.

Assays:
Assay in all cases: MIC, CLSI broth microdilution
Type in all cases: cell-based
[1] = test system: A. baumannii AABA1009 (Fluoroquinolone-resistant); details: for MIC AABA 1009: Table 2; for MIC: Acinetobacter baumannii, Table 2, read-out: MIC AABA 1009
Experimental: (§1) Minimum inhibitory concentrations (MIC) were determined by reference Clinical and Laboratory Standards Institute (CLSI) broth microdilution methods per M7-A7 [2006]. Quality control ranges utilizing E. coli ATCC 25922, P. aeruginosa ATCC 27853 and S. aureus ATCC 29213, and interpretive criteria for comparator agents were as published in CLSI M100-S17 [2007]. Briefly, serial two-fold dilutions of the test compounds were prepared at 2× concentration in Mueller Hinton Broth. The compound dilutions were mixed in 96-well assay plates in a 1:1 ratio with bacterial inoculum. The inoculum was prepared by suspension of a colony from an agar plate that was prepared the previous day. Bacteria were suspended in sterile saline and added to each assay plate to obtain a final concentration of 5×10^5 CFU/mL. The plates were incubated at 35° C. for 20 hours in ambient air.

[2] = test system: A. baumannii AABA1065 (Fluoroquinolone-susceptible); details: for MIC AABA 1065: Table 2; for MIC: Acinetobacter baumannii, Table 2, read-out: MIC AABA 1065
Experimental: as §1

[3] = test system: E. coli AECO001 (Fluoroquinolone susceptible, ATCC25922); details: Table 2, 35° C., 20 hours; for MIC: Escherichia coli, read-out: MIC AECO 001
Experimental: as §1

[4] = test system: E. coli AECO066 (Fluoroquinolone-resistant); details: for MIC AECO 066: Table 2; for MIC: Escherichia coli, Table 2, read-out: MIC AECO 066
Experimental: as §1

[5] = test system: P. aeruginosa APAE001 (Fluoroquinolone-susceptible, ATCC27853); details: for MIC APAE 001: Table 2; for MIC: Pseudomonas aeruginosa, Table 2, read-out: MIC APAE 001
Experimental: as §1

[6] = test system: P. aeruginosa APAE054 (Fluoroquinolone-resistant); details: for MIC APAE 054: Table 2; for MIC: Pseudomonas aeruginosa, Table 2, read-out: MIC APAE 054
Experimental: as §1

[7] = test system: S. aureus ASAU001 (Fluoroquinolone-susceptible, ATCC29213); details: for MIC ASAU 001: Table 2; for MIC: Staphylococcus aureus, Table 2, read-out: MIC ASAU 001
Experimental: as §1

[8] = test system: S. aureus ASAU1031 (Fluoroquinolone-resistant); details: for MIC ASAU 1031: Table 2; for MIC: Staphylococcus aureus, Table 2, read-out: MIC ASAU 1031
Experimental: as §1

[9] = test system: S. pneumoniae ASPN001 (Fluoroquinolone-susceptible, ATCC49619); details: for MIC ASPN 001: Table 2; for MIC: Streptococcus pneumoniae, Table 2, read-out: MIC ASPN 001
Experimental: as §1

[10] = test system: S. pneumoniae ASPN1027 (Fluoroquinolone-resistant); details: for MIC ASPN 1027: Table 2; for MIC: Streptococcus pneumoniae, Table 2, read-out: MIC ASPN 1027
Experimental: as §1

MIC AABA 1009 [1] | MIC AECO 001 [3] | MIC AECO 066 [4] | MIC APAE 001 [5] | MIC APAE 054 [6] | MIC ASAU 1031 [8] | MIC ASPN 001 [9] | MIC ASPN 1027 [10] | MIC [1] [µg/mL] | MIC [2] [µg/mL] | MIC [3] [µg/mL] | MIC [4] [µg/mL] | MIC [5] [µg/mL] | MIC [6] [µg/mL] | MIC [7] [µg/mL] | MIC [8] [µg/mL] | MIC [9] [µg/mL] | MIC [10] [µg/mL] | SMILES | MIC AABA 1065 [2] | MIC ASAU 001 [7]
 |  |  |  |  |  |  |  | > 8 | > 8 | ≤ 1 | > 8 | 1 to 8 (≈ 2.69 to 21.5 µM) | > 8 | ≤ 1 | > 8 | ≤ 1 | 1 to 8 (≈ 2.69 to 21.5 µM) | N[C@H]1CC2CCCc3c(c(F)cc4c(=O)c(C(=O)O)cn(C5CC5)c34)N2C1 (stereo partly shown) [32/4] |  | 
C (MIC's of greater than 8.0 μg/mL = C) | C (MIC's of greater than 8.0 μg/mL = C) | C (MIC's of greater than 8.0 μg/mL = C) | C (MIC's of greater than 8.0 μg/mL = C) | C (MIC's of greater than 8.0 μg/mL = C) | C (MIC's of greater than 8.0 μg/mL = C) | C (MIC's of greater than 8.0 μg/mL = C) | C (MIC's of greater than 8.0 μg/mL = C) |  |  |  |  |  |  |  |  |  |  | O=C(O)c1cn(C2CC2)c2c3c(c(F)cc2c1=O)N1C(=O)CC[C@H]1CC=C3 [23/12, (7aS)-4-Cyclopropyl-12-fluoro-1,10-dioxo-4,7,7a,8,9,10-hexahydro-1H-pyrrolo[1′,2′:1,7]azepino[2,3-h]quino-line-2-carboxylic acid] | C (MIC's of greater than 8.0 μg/mL = C) | B (MIC's of greater than 1.0 μg/mL to 8.0 μg/mL = B)
C (MIC's of greater than 8.0 μg/mL = C) | C (MIC's of greater than 8.0 μg/mL = C) | C (MIC's of greater than 8.0 μg/mL = C) | C (MIC's of greater than 8.0 μg/mL = C) | C (MIC's of greater than 8.0 μg/mL = C) | C (MIC's of greater than 8.0 μg/mL = C) | C (MIC's of greater than 8.0 μg/mL = C) | C (MIC's of greater than 8.0 μg/mL = C) |  |  |  |  |  |  |  |  |  |  | O=C(O)c1cn(C2CC2)c2c3c(c(F)cc2c1=O)N1C(=O)CC[C@H]1CCC3 [23/14, (7aR)-4-Cyclopropyl-12-fluoro-1,10-dioxo-4,5,6,7,7a,8,9,10-octahydro-1H-pyrrolo[1′,2′:1,7]azepino[2,3-h]quinoline-2-carboxylic acid] | C (MIC's of greater than 8.0 μg/mL = C) | C (MIC's of greater than 8.0 μg/mL = C)
 |  |  |  |  |  |  |  | > 8 | ≤ 1 | ≤ 1 | > 8 | ≤ 1 | > 8 | ≤ 1 | > 8 | ≤ 1 | > 8 | N[C@H]1C[C@H]2CCOc3c(c(F)cc4c(=O)c(C(=O)O)cn(C5CC5)c34)N2C1 [32/2] |  | 

SMILES | MIC AABA 1009 [1] | MIC AECO 001 [3] | MIC AECO 066 [4] | MIC APAE 001 [5] | MIC APAE 054 [6] | MIC ASAU 1031 [8] | MIC ASPN 001 [9] | MIC ASPN 1027 [10] | MIC [1] [µg/mL] | MIC [2] [µg/mL] | MIC [3] [µg/mL] | MIC [4] [µg/mL] | MIC [5] [µg/mL] | MIC [6] [µg/mL] | MIC [7] [µg/mL] | MIC [8] [µg/mL] | MIC [9] [µg/mL] | MIC [10] [µg/mL] | MIC AABA 1065 [2] | MIC ASAU 001 [7]
N[C@H]1C[C@H]2CNCc3c(c(F)cc4c(=O)c(C(=O)O)cn(C5CC5)c34)N2C1.O=C(O)C(F)(F)F.O=C(O)C(F)(F)F [5/11, (3aS,5S)-5-amino-13-cyclopropyl-8-fluoro-10-oxo-2,3,3a,4,5,6,10,13-octahydro-1H-pyrrolo[2′,1′:3,4][1,4]diazepino[5,6-h]quinoline-11-carboxylic acid bis(trifluoroacetate)] | C (MIC's of greater than 8.0 μg/mL = C) | A (MIC's of 1.0 μg/mL or less = A) | C (MIC's of greater than 8.0 μg/mL = C) | B (MIC's of greater than 1.0 μg/mL to 8.0 μg/mL = B) | C (MIC's of greater than 8.0 μg/mL = C) | C (MIC's of greater than 8.0 μg/mL = C) | B (MIC's of greater than 1.0 μg/mL to 8.0 μg/mL = B) | C (MIC's of greater than 8.0 μg/mL = C) |  |  |  |  |  |  |  |  |  |  | B (MIC's of greater than 1.0 μg/mL to 8.0 μg/mL = B) | B (MIC's of greater than 1.0 μg/mL to 8.0 μg/mL = B)
CN1Cc2c(c(F)cc3c(=O)c(C(=O)O)cn(C4CC4)c23)N2CCCC2C1.O=C(O)C(F)(F)F (stereo not shown) [15/3, 13-Cyclopropyl-8-fluoro-2-methyl-10-oxo-2,3,3a,4,5,6,10,13-octahydro-1H-pyrrolo[2′,1′:3,4][1,4]diazepino[5,6-h]quinoline-11-carboxylic acid trifluoroacetate] | C (MIC's of greater than 8.0 μg/mL = C) | A (MIC's of 1.0 μg/mL or less = A) | C (MIC's of greater than 8.0 μg/mL = C) | C (MIC's of greater than 8.0 μg/mL = C) | C (MIC's of greater than 8.0 μg/mL = C) | C (MIC's of greater than 8.0 μg/mL = C) | B (MIC's of greater than 1.0 μg/mL to 8.0 μg/mL = B) | C (MIC's of greater than 8.0 μg/mL = C) |  |  |  |  |  |  |  |  |  |  | A (MIC's of 1.0 μg/mL or less = A) | A (MIC's of 1.0 μg/mL or less = A)
O=C(O)c1cn(C2CC2)c2c3c(c(F)cc2c1=O)N1C[C@H](O)C[C@H]1CC=C3 [18/6, (7aR,9R)-4-Cyclopropyl-12-fluoro-9-hydroxy-1-oxo-4,7,7a,8,9,10-hexahydro-1H-pyrrolo[1′,2′:1,7]azepino-[2,3-h]quinoline-2-carboxylic acid] | C (MIC's of greater than 8.0 μg/mL = C) | A (MIC's of 1.0 μg/mL or less = A) | C (MIC's of greater than 8.0 μg/mL = C) | C (MIC's of greater than 8.0 μg/mL = C) | C (MIC's of greater than 8.0 μg/mL = C) | B (MIC's of greater than 1.0 μg/mL to 8.0 μg/mL = B) | A (MIC's of 1.0 μg/mL or less = A) | C (MIC's of greater than 8.0 μg/mL = C) |  |  |  |  |  |  |  |  |  |  | B (MIC's of greater than 1.0 μg/mL to 8.0 μg/mL = B) | A (MIC's of 1.0 μg/mL or less = A)
CON=C1Cc2c(c(F)cc3c(=O)c(C(=O)O)cn(C4CC4)c23)N2CCCC2C1 (stereo not shown) [27/11, 4-Cyclopropyl-12-fluoro-6-(methoxyimino)-1-oxo-4,5,6,7,7a,8,9,10-octahydro-1H-pyrrolo[1′,2′:1,7]azepino[2,3-h]quinoline-2-carboxylic acid] | C (MIC's of greater than 8.0 μg/mL = C) | B (MIC's of greater than 1.0 μg/mL to 8.0 μg/mL = B) | C (MIC's of greater than 8.0 μg/mL = C) | C (MIC's of greater than 8.0 μg/mL = C) | C (MIC's of greater than 8.0 μg/mL = C) | C (MIC's of greater than 8.0 μg/mL = C) | B (MIC's of greater than 1.0 μg/mL to 8.0 μg/mL = B) | C (MIC's of greater than 8.0 μg/mL = C) |  |  |  |  |  |  |  |  |  |  | B (MIC's of greater than 1.0 μg/mL to 8.0 μg/mL = B) | A (MIC's of 1.0 μg/mL or less = A)
O=C(O)c1cn(C2CC2)c2c3c(c(F)cc2c1=O)N1CCCC1C[S+]([O-])C3 (stereo not shown) [8/14, 13-Cyclopropyl-8-fluoro-10-oxo-3a,4,5,6,10,13-hexahydro-1H,3H-pyrrolo[2′,1′:3,4][1,4]thiazepino[5,6-h]quinoline-1′-carboxylic acid 2-oxide] | C (MIC's of greater than 8.0 μg/mL = C) | B (MIC's of greater than 1.0 μg/mL to 8.0 μg/mL = B) | C (MIC's of greater than 8.0 μg/mL = C) | C (MIC's of greater than 8.0 μg/mL = C) | C (MIC's of greater than 8.0 μg/mL = C) | C (MIC's of greater than 8.0 μg/mL = C) | C (MIC's of greater than 8.0 μg/mL = C) | C (MIC's of greater than 8.0 μg/mL = C) |  |  |  |  |  |  |  |  |  |  | B (MIC's of greater than 1.0 μg/mL to 8.0 μg/mL = B) | B (MIC's of greater than 1.0 μg/mL to 8.0 μg/mL = B)
O=C(O)c1cn(C2CC2)c2c3c(c(F)cc2c1=O)N1C(=O)CC[C@H]1COC3 [21/9, (3aS)-13-Cyclopropyl-8-fluoro-6,10-dioxo-3a,4,5,6,10,13-hexahydro-1H,3H-pyrrolo[2′,1′:3,4]oxazepino-[5,6-h]quinoline-11-carboxylic acid] | C (MIC's of greater than 8.0 μg/mL = C) | B (MIC's of greater than 1.0 μg/mL to 8.0 μg/mL = B) | C (MIC's of greater than 8.0 μg/mL = C) | C (MIC's of greater than 8.0 μg/mL = C) | C (MIC's of greater than 8.0 μg/mL = C) | C (MIC's of greater than 8.0 μg/mL = C) | C (MIC's of greater than 8.0 μg/mL = C) | C (MIC's of greater than 8.0 μg/mL = C) |  |  |  |  |  |  |  |  |  |  | C (MIC's of greater than 8.0 μg/mL = C) | B (MIC's of greater than 1.0 μg/mL to 8.0 μg/mL = B)
